Data from US8349553B2, “Jasmonate based assays for identifying compounds that selectively inhibit mitochondrial bound hexokinases” (Ramot at Tel Aviv University Ltd., priority 2007, dated 2013).

What was measured:
[1] = system: mitochondria-bound hexokinase (mitochondrial fraction of BCL-1 leukemic cells); test: Hexokinase detachment assay, mitochondrial fraction of BCL-1 leukemic cells; format: biochemical, murine; conditions: BCL-1 mitochondrial fraction; 30 minutes at 37° C.
Description: (§1) Mitochondrial fraction was prepared by mechanical lysis and differential centrifugation. All stages were performed on ice. Cells or extracted tissues were washed with PBS and disrupted by homogenization in extraction buffer (Sucrose 250 mM, HEPES-NaOH 10 mM, pH 7.2) freshly supplemented with 0.1 mM EDTA and Protease Inhibitors cocktail (Sigma). For each gram of cells or tissue, 4 volumes of extraction buffer were applied. The homogenate volume was doubled with the extraction buffer, and tissue and cell debris as well as nuclei were pelleted by centrifugation of 1,000 g for 10 minutes. The supernatant was further spun at 13,000 g for 10 minutes twice. Endoplasmic reticulum layer was removed. The pellet, designated as the mitochondrial fraction, was suspended in the appropriate buffer, depending on the assay for which the mitochondrial fraction was prepared. Mitochondrial fractions were used immediately or stored at −196° C. […] Activity of hexokinase in the supernatant (i.e., activity of the detached hexokinase) was determined spectrophotometrically at 340 nm. […] Mitochondrial fractions isolated from different cancer cells, namely Molt-4 cells, BCL-1 leukemic cells and B16 melanoma tumors were incubated for 30 minutes at 37° C., and the activity of unbound hexokinase was measured and compared to the activity of spontaneously (control) detached hexokinase. […]

[2] = system: mitochondria-bound hexokinase (mitochondrial fraction of B16 melanoma tumors); test: Hexokinase detachment assay, mitochondrial fraction of B16 melanoma tumors; format: biochemical, murine; conditions: B16 tumor mitochondrial fraction; 30 minutes at 37° C.
Description: as §1

[3] = system: HKI and HKII (mitochondrial fraction of BCL-1); test: Western blot of supernatants with anti-HKI and anti-HKII, BCL-1 mitochondrial fraction; format: biochemical, murine; conditions: BCL-1 mitochondrial fraction supernatant
Description: For analysis of hexokinase levels, the experiments were performed similarly to hexokinase detachment assay described above, and unbound hexokinase in the supernatant fraction was extracted as described in Fingrut (2005). Samples were separated by sodium dodecylsulfate-polyacrylamide gel (7%) electrophoresis followed by immunoblotting. The blots were probed with specific anti-HKI or anti-HKII antibodies (1:300, Santa-Cruz Biotechnology, CA, USA). Hexokinase-antibody complexes were stained with HRP-conjugated antibody (1:10,000, Santa-Cruz Biotechnology, CA, USA). Enhanced chemiluminescence (ECL) reagent (Biological Industries, Beit Haemek, Israel) was added, and the blots were exposed to ECL film (Eastman Kodak, Rochester, N.Y., USA). Hexokinase detachment from mitochondrial fraction is not limited to CT-26 colon carcinoma. Mitochondrial fractions isolated from different cancer cells, namely Molt-4 cells, BCL-1 leukemic cells and B16 melanoma tumors were incubated for 30 minutes at 37° C., and the activity of unbound hexokinase was measured and compared to the activity of spontaneously (control) detached hexokinase. […] The supernatant of the experiments were separated on SDS-PAGE and probed with anti-HKI and anti-HKII antibodies.

[4] = target: T1, voltage-dependent anion channel (Rattus norvegicus, UniProt Q9Z2L0); test: Voltage-dependent anion channel recording in planar lipid bilayer (channel alone); format: biochemical; conditions: 3 mM; voltage stepped from 0 mV to −40 mV
T1 construct: purified mitochondrial voltage-dependent anion channel reconstituted into a planar lipid bilayer; from tissue; host or cells: rat liver mitochondria
Description: (§2) Currents were measured with respect to the trans side of the membrane (ground).

[5] = target: T2, hexokinase-I-Voltage dependent anion channel interactions (Rattus norvegicus, UniProt P05708); test: Voltage-dependent anion channel recording in planar lipid bilayer after addition of hexokinase-I; format: biochemical; conditions: 3 mM, HK-I 20 mU/ml, recorded after 10 minutes
T2 construct: from tissue; host or cells: HK-I from rat brain mitochondria; VDAC from rat liver mitochondria
Description: as §2

[6] = system: mitochondrial fraction of mouse brain; test: Mitochondrial swelling assay, mouse brain; format: biochemical; conditions: 1 mM
Description: Freshly isolated mitochondrial fraction was washed with extraction buffer to remove EDTA and resuspended in swelling buffer (Mannitol 220 mM, Sucrose 70 mM, Tris, pH 7.2, 150 mM, KH2PO4, pH 7.2, 0.2 mM; 0.2 mg in 100 μL) freshly supplemented with potassium succinate, pH 7.2, 5 mM. Every component was sodium-free. Optical density was monitored at the wave length of 540 nm for 2-5 minutes before the addition of the examined reagents, e.g. methyl jasmonate, and for additional 20 minutes afterwards.
In order to examine the consistency of the relationship between the ability of methyl jasmonate to detach bound hexokinase and mitochondrial damage, methyl jasmonate was tested in mouse brain in comparison to mouse liver. The comparison was performed due to known differences of mitochondrial hexokinase content between mouse brain vs. its liver. It is well established in the art that brain mitochondrial fraction is rich in bound hexokinase, while liver mitochondrial fraction is essentially devoid of it (Wilson, 1995). […] Mitochondrial fractions were incubated for either 10, 30 or 60 minutes at 37° C. The activity of unbound hexokinase was measured and compared to the activity of spontaneously (control) detached hexokinase. Consequently, the ability of methyl jasmonate to induce swelling in mitochondrial fraction isolated from mouse brain and liver was tested.

T2 sequence (P05708 whole entry): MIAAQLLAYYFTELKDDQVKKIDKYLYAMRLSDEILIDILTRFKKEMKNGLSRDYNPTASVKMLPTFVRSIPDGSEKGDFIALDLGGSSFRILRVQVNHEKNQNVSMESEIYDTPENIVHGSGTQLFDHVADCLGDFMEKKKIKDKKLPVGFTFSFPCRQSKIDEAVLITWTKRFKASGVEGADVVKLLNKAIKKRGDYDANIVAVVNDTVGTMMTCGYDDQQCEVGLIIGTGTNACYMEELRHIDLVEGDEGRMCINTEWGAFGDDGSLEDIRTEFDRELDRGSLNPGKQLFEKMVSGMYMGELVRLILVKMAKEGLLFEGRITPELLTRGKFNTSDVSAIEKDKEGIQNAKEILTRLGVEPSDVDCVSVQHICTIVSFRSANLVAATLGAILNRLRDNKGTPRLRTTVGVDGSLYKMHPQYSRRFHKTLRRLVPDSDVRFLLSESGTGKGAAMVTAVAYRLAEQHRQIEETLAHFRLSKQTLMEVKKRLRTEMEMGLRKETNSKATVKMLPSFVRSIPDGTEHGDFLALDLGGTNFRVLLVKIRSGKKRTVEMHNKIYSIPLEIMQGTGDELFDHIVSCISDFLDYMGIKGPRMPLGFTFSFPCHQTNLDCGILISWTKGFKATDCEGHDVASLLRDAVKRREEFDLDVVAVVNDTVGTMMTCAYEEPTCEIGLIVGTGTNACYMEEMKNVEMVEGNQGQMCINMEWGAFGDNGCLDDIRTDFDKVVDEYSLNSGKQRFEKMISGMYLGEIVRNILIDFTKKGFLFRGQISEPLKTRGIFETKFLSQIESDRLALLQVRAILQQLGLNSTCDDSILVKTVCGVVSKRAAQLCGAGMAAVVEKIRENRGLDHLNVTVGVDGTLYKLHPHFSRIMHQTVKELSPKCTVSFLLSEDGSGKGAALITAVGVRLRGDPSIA
T1 sequence (Q9Z2L0 whole entry): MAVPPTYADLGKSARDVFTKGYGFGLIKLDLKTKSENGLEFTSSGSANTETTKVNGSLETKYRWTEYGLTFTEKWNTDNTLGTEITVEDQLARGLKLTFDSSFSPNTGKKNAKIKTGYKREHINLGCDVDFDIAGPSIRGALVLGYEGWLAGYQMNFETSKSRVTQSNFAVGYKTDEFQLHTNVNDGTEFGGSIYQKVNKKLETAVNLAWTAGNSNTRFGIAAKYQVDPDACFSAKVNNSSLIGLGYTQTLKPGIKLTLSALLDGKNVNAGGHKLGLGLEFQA

CC/C=C\CC1C(=O)CCC1CC(=O)OC (stereo not shown) [methyl jasmonate]
detachment of hexokinase (activity of unbound hexokinase compared to control) [1]: detached hexokinase from mitochondrial fraction isolated from the three different cancer cells
detachment of hexokinase (activity of unbound hexokinase compared to control) [2]: detached hexokinase from mitochondrial fraction isolated from the three different cancer cells
detachment of hexokinase confirmed by immunoblot (anti-HKI, anti-HKII) [3]: detachment of hexokinase from mitochondrial fraction of the various cancer cells was further confirmed
current passing through voltage-dependent anion channel (no hexokinase) [4]: showed no effect on the current passing through voltage-dependent anion channel
effect on HK-I-induced low-conducting state of voltage-dependent anion channel ([5]; −20 mV): reversed by the addition of methyl jasmonate
effect on HK-I-closed voltage-dependent anion channel ([5]; −40 mV): led to re-opening of HK-I-closed channels
mitochondrial swelling (optical density at 540 nm) [6]: led to swelling in brain
